The target of this assay is T1, glutathione peroxidase 1 (GPx-1) (Bos taurus, UniProt P00435).
T1 sequence (P00435 1-205): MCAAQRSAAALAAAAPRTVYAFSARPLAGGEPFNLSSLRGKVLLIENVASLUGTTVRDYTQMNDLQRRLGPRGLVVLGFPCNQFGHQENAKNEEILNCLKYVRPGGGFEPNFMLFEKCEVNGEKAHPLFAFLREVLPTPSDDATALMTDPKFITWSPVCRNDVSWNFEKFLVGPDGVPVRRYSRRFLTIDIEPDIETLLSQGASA
The assay can be described thus: immobilized enzyme inactivation, GR-coupled NADPH assay at […] nm after wash-out. In kind it is biochemical.

Turning to `CCN1C(=O)C=CC1=O` [NEM, N-ethylmaleimide], half-maximal inhibition (IC50) was put at 8.77 mM.

Source of the values: publication PMC3328416 (2012).
